Data: paper PMC7924852, “The Emericellipsins A–E from an Alkalophilic Fungus Emericellopsis alkalina Show Potent Activity against Multidrug-Resistant Pathogenic Fungi” (Journal of Fungi, 2021)

How the values were obtained:
[1] = tested on: A. niger 1133 m; assay: Broth two-fold microdilution MIC (CLSI); format: cell-based, Aspergillus niger; settings: A. niger 1133 m clinical isolate; RPMI 1640 pH 7.0, 35 °C, 48 h
[2] = tested on: reference and clinical strains of Aspergillus; assay: Disc-diffusion antifungal assay, Aspergillus strains; format: cell-based; settings: range over clinical isolates of Aspergillus (Figure S2)
[3] = tested on: clinical isolates of Candida; assay: Disc-diffusion antifungal assay, clinical yeast isolates; format: cell-based; settings: range over clinical isolates of Candida (Figure S2)
[4] = tested on: human erythrocytes; assay: Hemolytic activity; format: cell-based; settings: for hemolytic activity (in words): concentrations of 0–20 μM
Experimental: Erythrocytes were isolated from the peripheral blood of healthy donors after incubation at 4 °C for 2–3 h. All the donors are males, 35–38 years old. All of them have approved to collect blood samples, and the authors have permissions filled. All the blood samples have been destroyed after the experiments finished. The red blood cell suspension (100 μL) was pelleted, washed twice with saline, then the pellet was resuspended in 500 μL saline or distilled water (positive control of hemolysis). The compounds were added (final concentration of 20 μM). The samples were incubated for 1 h at 37 °C and centrifuged at 2000 rpm for 1.5 min. The OD of supernatants was measured on a Multiscan spectrophotometer FC (Thermo Scientific, Waltham, MA, USA) at a wavelength of 540 nm. The percent hemolysis was calculated relative to the positive control, taken as 100%.
Erythrocytes were isolated from the human blood: On the day of the study, blood was taken from the donor’s cubital vein into a test tube with an anticoagulant. The blood was incubated at 4 °C for 2‒3 h. A suspension of erythrocytes (100 μL) was diluted with a physiological buffer (pH 7.2) to a total volume of 500 μL. Solutions of the test substances with an initial concentration of […] (DMSO) were diluted with a PBS buffer (1:10). The resulting solutions were introduced into Eppendorf tubes in the amounts required to create the studied concentration (5, 10, or 20 μM). A mixture of PBS with erythrocytes was added to a total volume of 200 μL. The control (C) was a mixture of erythrocytes with H2O (100% of hemolysis). The intact control solution (I) was a mixture of erythrocytes with the PBS and solvent (DMSO). The antibiotic gramicidin S (Gram S) was used as a control sample with active hemolysis. The mixture was incubated for 1 h at 37 °C. The measurement of the optical density of the supernatants was carried out on a BioTek ELx800 automatic microplate photometer (USA) at 570 nm. The optical density of the liquid above the sediment in the control sample with H2O was taken as 100%.

[5] = tested on: C. tropicalis 156; assay: Broth microdilution MIC and MFC (CLSI); format: cell-based

In the case of “Methyldecanoyl-MePro-AHMOD-Ala-Aib-Ile-Iva-βAla-Alaol-Glyol [EmiA, emericellipsin A, nonribosomal lipopeptaibol, major compound of E. alkalina VKPM F1428]”, the “Minimal Inhibitory Concentration (MIC)” value [1] was 4 µg/mL, the inhibition zones [2] was 15–19 mm and the inhibition zones [3] was 20–25 mm. The hemolysis ([4]; 20 μM, 1 h, 37 °C, relative to H2O control = 100%, OD 540 nm or 570 nm, triplicate, mean) was “approximately 12.6%”, the “hemolytic activity (in words)” value [4] was “no hemolytic activity” and the “hemolytic activity (in words)” value ([4]; listed as Emericellipsin A) was “negligible hemolytic activity”. The MFC ([5]; C. tropicalis 156, lowest concentration causing 95% death) was 2 µg/mL and the MIC ([5]; C. tropicalis 156 clinical isolate, RPMI 1640 pH 7.0, 35 °C, 24 h) was 1 µg/mL.
